“And” between values parts separate entries of the source, which are not always exact repeats. Equal entries are not always repeated. Structures can show the parent of a compound that is named as a salt. Where two headings read alike, the source gives them in different places.
Biological target: T1, Human IP6K1 (Homo sapiens, UniProt Q92551)
T1 construct: GST (N, cleaved yes); made in house; host or cells: C43 E. coli, pGEX-6P-2
Assay: IP6K1 high-throughput screen of the Sigma LOPAC (ADP-Glo Max, single point);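 further: final compound concentration 10µM in 5% DMSO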
Assay type: biochemical

[1] = LOPAC single-point screen, ADP-Glo Max luminescence raw signal per well
[2] = LOPAC single-point screen, Z-score relative to plate average and StDev
[3] = LOPAC single-point screen, Z-score from plate average and StDev
[4] = Sigma LOPAC single-point screen, ADP-Glo Max raw signal per well
[5] = Sigma LOPAC single-point screen, Z-score from plate average and StDev
[6] = LOPAC single-point screen, ADP-Glo Max raw signal per well
[7] = LOPAC single-point screen, Z-score from raw signal with plate average and StDev
[8] = LOPAC single-point screen, Z-score against plate average and StDev

T1 sequence (Q92551 whole entry): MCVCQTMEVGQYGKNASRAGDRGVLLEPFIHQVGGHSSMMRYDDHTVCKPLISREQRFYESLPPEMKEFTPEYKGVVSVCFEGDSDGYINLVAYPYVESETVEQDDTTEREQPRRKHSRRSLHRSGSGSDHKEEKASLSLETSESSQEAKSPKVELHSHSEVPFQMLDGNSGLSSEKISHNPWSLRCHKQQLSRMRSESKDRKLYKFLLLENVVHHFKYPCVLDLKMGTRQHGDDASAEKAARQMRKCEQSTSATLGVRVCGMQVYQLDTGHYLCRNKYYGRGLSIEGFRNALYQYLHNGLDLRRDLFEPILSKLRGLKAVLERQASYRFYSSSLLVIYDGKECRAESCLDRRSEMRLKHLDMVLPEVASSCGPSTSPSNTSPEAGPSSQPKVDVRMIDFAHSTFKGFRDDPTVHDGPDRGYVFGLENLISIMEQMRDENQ

Compound: O=C(O)[C@@H]1CCN1 [L-azetidine-2-carboxylic acid]
- Raw Signal [1]: 54831
- Z-score [2]: -0.5428

Compound: N#CC(C#N)=C(N)/C(C#N)=C/c1ccc(O)cc1 [Tyrphostin AG 112]
- Raw Signal [1]: 52903
- Z-score [2]: -0.6063

Compound: CC(C)NCC(O)COc1cccc2[nH]ccc12 (stereo not drawn) [S(-)-Pindolol]
- Raw Signal [1]: 52829 and 52276

Compound: Cl.O=c1cc(N2CCOCC2)oc2c(-c3ccccc3)cccc12 [LY-294,002 hydrochloride]
- Raw Signal [1]: 50825
- Z-score [2]: -0.5996

Compound: Oc1cc(O)cc(/C=C/c2ccc(O)c(O)c2)c1 [Piceatannol]
- Raw Signal [1]: 49635
- Z-score [2]: -0.7996

Compound: CN(C)CCOC(=O)COc1ccc(Cl)cc1 [Centrophenoxine hydrochloride]
- Raw Signal [1]: 69002
- Z-score [3]: 1.953

Compound: Cc1ccc(S(=O)(=O)N[C@@H](Cc2ccccc2)C(=O)CCl)cc1
- Raw Signal [4]: 59222
- Z-score [5]: 0.6213

Compound: CN1C[C@H](O)[C@@H](O)[C@H](O)[C@H]1CO [N-Methyl-1-deoxynojirimycin]
- Raw Signal [6]: 53171
- Z-score [7]: -0.2054

Compound: CNC[C@H](O)c1ccc(O)c(O)c1 [(-)-Epinephrine bitartrate]
- Raw Signal [1]: 51229
- Z-score [2]: -0.7998

Compound: CCCCCCC(C)(C)c1ccc([C@@H]2C[C@H](O)CC[C@H]2CCCO)c(O)c1 [CP55940]
- Raw Signal [6]: 55459
- Z-score [7]: -0.4322

Compound: CN(Cc1cnc2nc(N)nc(N)c2n1)c1ccc(C(=O)N[C@@H](CCC(=O)O)C(=O)O)cc1 [(-)Amethopterin]
- Raw Signal [4]: 61362
- Z-score [5]: 0.6074

Compound: Nc1nnc(-c2cccc(Cl)c2Cl)c(N)n1 [Lamotrigine]
- Raw Signal [6]: 53800
- Z-score [7]: -0.09973

Compound: Nc1nc2c(ncn2COCCO)c(=O)[nH]1 [Acyclovir]
- Raw Signal [1]: 53270
- Z-score [2]: -0.8178

Compound: CNC(=O)[C@H]1O[C@@H](n2cnc3c(NCc4cccc(I)c4)ncnc32)[C@H](O)[C@@H]1O [IB-MECA]
- Raw Signal [1]: 49701
- Z-score [2]: -0.7885

Compound: COc1cccc(-c2cc(=O)c3ccccc3o2)c1N [PD 98,059]
- Raw Signal [6]: 54412
- Z-score [7]: -0.3131

Compound: O=C(O)c1ccccc1Nc1ccccc1 [N-Phenylanthranilic acid]
- Raw Signal [4]: 63268
- Z-score [5]: 0.9431

Compound: Nc1ncnc2c1ncn2C1CCCO1 (centres unmarked) [SQ 22536]
- Raw Signal [1]: 63004
- Z-score [3]: 1.356

Compound: CN[C@H](CC(C)C)C(=O)N[C@H]1C(=O)N[C@@H](CC(N)=O)C(=O)N[C@H]2C(=O)N[C@H]3C(=O)N[C@H](C(=O)N[C@H](C(=O)O)c4cc(O)cc(O)c4-c4cc3ccc4O)[C@H](O)c3ccc(c(Cl)c3)Oc3cc2cc(c3O[C@@H]2O[C@H](CO)[C@@H](O)[C@H](O)[C@H]2O[C@H]2C[C@](C)(N)[C@H](O)[C@H](C)O2)Oc2ccc(cc2Cl)[C@H]1O.Cl
- Raw Signal [4]: 61643
- Z-score [5]: 1.0917

Compound: CNCC(O)c1ccc(O)c(O)c1.Cl (racemic) [(±)-Epinephrine hydrochloride]
- Raw Signal: 49297
- Z-score: -1.192

Compound: COc1ccc2c(c1)c(CC(=O)N1CCOCC1)c(C)n2C(=O)c1ccc(Cl)cc1 [Indomethacin morpholinylamide]
- Raw Signal [6]: 52785
- Z-score [7]: -0.2703

Compound: Cc1ccc(/C(=C\CN2CCCC2)c2ccccn2)cc1.Cl [Triprolidine hydrochloride]
- Raw Signal [6]: 57463
- Z-score [8]: 0.2796

Compound: CCSC(=N)Nc1ccc(C(F)(F)F)cc1.Cl [TFPI hydrochloride]
- Raw Signal [6]: 53926
- Z-score [7]: -0.4076

Compound: O=C(CCCN1CCC(O)(c2cccc(C(F)(F)F)c2)CC1)c1ccc(F)cc1 [Trifluperidol hydrochloride]
- Raw Signal [6]: 56876
- Z-score [8]: 0.1656

Compound: Adenosine 3 ,5 -cyclic monophosphate
- Raw Signal: 66195
- Z-score: 1.459

Compound: NCCS(=O)(=O)O [Taurine]
- Raw Signal [1]: 52621
- Z-score [2]: -0.6611

Compound: CCCN1CCOC2c3cc(O)ccc3OCC21.Cl (racemic) [(±)-PD 128,907 hydrochloride]
- Raw Signal [1]: 53572
- Z-score [2]: -0.4763

Compound: O=C(O)CCc1nc(-c2ccccc2)c(-c2ccccc2)o1 [Oxaprozin]
- Raw Signal [4]: 57771
- Z-score [5]: 0.5675

Compound: CN1CCN(C(=O)OC2c3nccnc3C(=O)N2c2ccc(Cl)cn2)CC1 (centres unmarked) [Zopiclone]
- Raw Signal [6]: 56506
- Z-score [8]: 0.09368

Compound: COc1cc(NS(C)(=O)=O)ccc1Nc1c2ccccc2nc2ccccc12 [Amsacrine hydrochloride]
- Raw Signal [6]: 58568
- Z-score [8]: 0.1153

Compound: Nc1ccncc1 [4-Aminopyridine]
- Raw Signal [6]: 56638
- Z-score [7]: -0.2246

Compound: C#CCN1C(C)=C(C(=O)OC)C(c2cccc([N+](=O)[O-])c2)C(C(=O)OCC)=C1C (centres unmarked) [MRS 1845]
- Raw Signal [6]: 54765
- Z-score [8]: 0.06242

Compound: CC(=O)CCCCn1c(=O)c2c(ncn2C)n(C)c1=O [Pentoxifylline]
- Raw Signal [6]: 53271
- Z-score [7]: -0.1886

Compound: CSc1ccc(C(=O)c2[nH]c(=O)[nH]c2C)cc1 [Enoximone]
- Raw Signal [1]: 64614
- Z-score [3]: 1.919

Compound: N[C@H](CCC(=O)NCS(=O)(=O)O)C(=O)O [gamma-D-Glutamylaminomethylsulfonic acid]
- Raw Signal [4]: 58321
- Z-score [5]: 0.6405

Compound: N#CC(C#N)=Cc1cc(O)c(O)c(O)c1 [Tyrphostin 25]
- Raw Signal [1]: 46819
- Z-score [2]: -1.788

Compound: N#C/C(=C\c1ccc(O)c(O)c1)C(=O)Nc1ccccc1 [Tyrphostin AG 494]
- Raw Signal [6]: 54872
- Z-score [7]: -0.2238

Compound: CCCCCCCCCCC/C=C\C(C)(C)/C=C\CCCC(=O)O [7,7-Dimethyl-(5Z,8Z)-eicosadienoic acid]
- Raw Signal [6]: 53422
- Z-score [7]: -0.3544

Compound: COc1ccccc1CNCCCCCCNCCCCCCCCNCCCCCCNCc1ccccc1OC.Cl.Cl.Cl.Cl [Methoctramine tetrahydrochloride]
- Raw Signal [4]: 56889
- Z-score [5]: 0.4193

Compound: CN(C)c1ccc(/C=C2\C(=O)Nc3ccccc32)cc1 [SU 4312]
- Raw Signal [4]: 60273
- Z-score [5]: 0.8255

Compound: CN1[C@@H]2CC[C@H]1C[C@@H](OC(c1ccccc1)c1ccccc1N)C2 (some centres unmarked) [Aminobenztropine]
- Raw Signal [6]: 58792
- Z-score [8]: 0.1548

Compound: O=C(O)C1CCCNC1 (racemic) [(±)-Nipecotic acid]
- Raw Signal [4]: 63719
- Z-score [5]: 1.023

Compound: CC(C)NCC(O)c1ccc(NS(C)(=O)=O)cc1.Cl (racemic) [(±)-Sotalol hydrochloride]
- Raw Signal [6]: 55236
- Z-score [7]: -0.1531

Compound: COc1cc2nc(N3CCN(C(=O)OCc4ccccc4)[C@H](C(=O)NC(C)(C)C)C3)nc(N)c2cc1OC [L-765,314]
- Z-score [7]: -0.2706

Compound: C[C@@H](N)Cc1cnc[nH]1.Cl.Cl
- Raw Signal: 55341
- Z-score: 0.03533

Compound: CN(C)CCCC1(c2ccc(F)cc2)OCc2cc(C#N)ccc21 (centres unmarked) [Citalopram hydrobromide]
- Raw Signal [6]: 58251
- Z-score [8]: 0.05951

Compound: CN(C)CCC(c1ccc(Br)cc1)c1ccccn1.O=C(O)/C=C\C(=O)O (racemic) [(±)-Brompheniramine maleate]
- Raw Signal [6]: 59748
- Z-score [8]: 0.3232

Compound: C[C@H]1c2cccc(O)c2C(=O)C2=C(O)[C@]3(O)C(=O)C(C(N)=O)=C(O)[C@@H](N(C)C)[C@@H]3[C@@H](O)[C@@H]21 [Doxycycline hydrochloride]
- Raw Signal [1]: 51944
- Z-score [2]: -0.6546
